Data published in ChEMBL document CHEMBL2073844, “Pharmacological characterization of the murine and human orthologs of multidrug-resistance protein in transfected human embryonic kidney cells” (Mol Pharmacol, 1997).
Entries after “also recorded” stand apart in the source; their conditions may differ.

Experiments:
Type in all cases: functional, cell-based
[1] = biological target: T1, Multidrug resistance-associated protein 1 (Mus musculus, UniProt O35379); assay: TP_TRANSPORTER: efflux in Mrp1-expressing HEK293 cells; conditions: human
T1 sequence (O35379 whole entry): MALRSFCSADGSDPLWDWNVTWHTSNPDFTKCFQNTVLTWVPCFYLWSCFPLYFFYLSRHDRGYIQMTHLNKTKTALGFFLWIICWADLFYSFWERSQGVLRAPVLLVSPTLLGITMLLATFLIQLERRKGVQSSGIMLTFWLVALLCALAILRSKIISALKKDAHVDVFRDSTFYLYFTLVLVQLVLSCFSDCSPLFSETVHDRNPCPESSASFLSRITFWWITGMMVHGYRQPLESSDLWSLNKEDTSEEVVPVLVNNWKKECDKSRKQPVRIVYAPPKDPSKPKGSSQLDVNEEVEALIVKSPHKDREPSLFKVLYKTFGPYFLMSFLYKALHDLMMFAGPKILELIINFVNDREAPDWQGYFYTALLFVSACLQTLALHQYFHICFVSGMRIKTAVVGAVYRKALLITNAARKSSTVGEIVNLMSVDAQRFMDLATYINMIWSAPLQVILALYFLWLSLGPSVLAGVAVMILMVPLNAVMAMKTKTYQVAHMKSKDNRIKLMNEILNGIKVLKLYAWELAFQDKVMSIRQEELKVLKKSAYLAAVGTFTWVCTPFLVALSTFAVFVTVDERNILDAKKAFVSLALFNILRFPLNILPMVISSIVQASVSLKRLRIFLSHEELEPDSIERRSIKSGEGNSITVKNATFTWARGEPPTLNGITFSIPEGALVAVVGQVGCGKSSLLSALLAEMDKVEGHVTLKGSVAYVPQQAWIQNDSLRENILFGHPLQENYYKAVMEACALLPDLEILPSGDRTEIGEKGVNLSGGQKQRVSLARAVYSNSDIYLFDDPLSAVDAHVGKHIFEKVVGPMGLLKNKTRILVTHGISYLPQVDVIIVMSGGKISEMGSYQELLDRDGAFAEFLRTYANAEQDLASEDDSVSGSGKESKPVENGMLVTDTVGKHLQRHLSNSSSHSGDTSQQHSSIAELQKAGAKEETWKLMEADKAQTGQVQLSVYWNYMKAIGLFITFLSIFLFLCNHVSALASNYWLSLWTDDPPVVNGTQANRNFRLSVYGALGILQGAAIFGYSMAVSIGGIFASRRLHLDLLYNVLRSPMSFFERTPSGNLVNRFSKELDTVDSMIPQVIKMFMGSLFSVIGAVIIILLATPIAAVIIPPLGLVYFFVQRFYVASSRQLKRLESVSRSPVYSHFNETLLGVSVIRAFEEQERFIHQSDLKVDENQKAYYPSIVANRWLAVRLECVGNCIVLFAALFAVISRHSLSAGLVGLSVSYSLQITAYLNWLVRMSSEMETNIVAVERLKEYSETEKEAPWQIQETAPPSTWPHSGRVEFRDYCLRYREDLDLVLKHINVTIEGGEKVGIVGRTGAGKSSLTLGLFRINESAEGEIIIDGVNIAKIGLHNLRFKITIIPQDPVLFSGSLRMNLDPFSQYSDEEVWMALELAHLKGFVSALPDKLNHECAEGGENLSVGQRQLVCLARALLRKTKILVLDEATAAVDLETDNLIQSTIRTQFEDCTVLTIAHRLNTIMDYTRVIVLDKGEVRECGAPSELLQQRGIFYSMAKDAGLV

[2] = biological target: T2, Multidrug resistance-associated protein 1 (Homo sapiens, UniProt P33527); assay: TP_TRANSPORTER: efflux in MRP1-expressing HEK293 cells
T2 sequence (P33527 whole entry): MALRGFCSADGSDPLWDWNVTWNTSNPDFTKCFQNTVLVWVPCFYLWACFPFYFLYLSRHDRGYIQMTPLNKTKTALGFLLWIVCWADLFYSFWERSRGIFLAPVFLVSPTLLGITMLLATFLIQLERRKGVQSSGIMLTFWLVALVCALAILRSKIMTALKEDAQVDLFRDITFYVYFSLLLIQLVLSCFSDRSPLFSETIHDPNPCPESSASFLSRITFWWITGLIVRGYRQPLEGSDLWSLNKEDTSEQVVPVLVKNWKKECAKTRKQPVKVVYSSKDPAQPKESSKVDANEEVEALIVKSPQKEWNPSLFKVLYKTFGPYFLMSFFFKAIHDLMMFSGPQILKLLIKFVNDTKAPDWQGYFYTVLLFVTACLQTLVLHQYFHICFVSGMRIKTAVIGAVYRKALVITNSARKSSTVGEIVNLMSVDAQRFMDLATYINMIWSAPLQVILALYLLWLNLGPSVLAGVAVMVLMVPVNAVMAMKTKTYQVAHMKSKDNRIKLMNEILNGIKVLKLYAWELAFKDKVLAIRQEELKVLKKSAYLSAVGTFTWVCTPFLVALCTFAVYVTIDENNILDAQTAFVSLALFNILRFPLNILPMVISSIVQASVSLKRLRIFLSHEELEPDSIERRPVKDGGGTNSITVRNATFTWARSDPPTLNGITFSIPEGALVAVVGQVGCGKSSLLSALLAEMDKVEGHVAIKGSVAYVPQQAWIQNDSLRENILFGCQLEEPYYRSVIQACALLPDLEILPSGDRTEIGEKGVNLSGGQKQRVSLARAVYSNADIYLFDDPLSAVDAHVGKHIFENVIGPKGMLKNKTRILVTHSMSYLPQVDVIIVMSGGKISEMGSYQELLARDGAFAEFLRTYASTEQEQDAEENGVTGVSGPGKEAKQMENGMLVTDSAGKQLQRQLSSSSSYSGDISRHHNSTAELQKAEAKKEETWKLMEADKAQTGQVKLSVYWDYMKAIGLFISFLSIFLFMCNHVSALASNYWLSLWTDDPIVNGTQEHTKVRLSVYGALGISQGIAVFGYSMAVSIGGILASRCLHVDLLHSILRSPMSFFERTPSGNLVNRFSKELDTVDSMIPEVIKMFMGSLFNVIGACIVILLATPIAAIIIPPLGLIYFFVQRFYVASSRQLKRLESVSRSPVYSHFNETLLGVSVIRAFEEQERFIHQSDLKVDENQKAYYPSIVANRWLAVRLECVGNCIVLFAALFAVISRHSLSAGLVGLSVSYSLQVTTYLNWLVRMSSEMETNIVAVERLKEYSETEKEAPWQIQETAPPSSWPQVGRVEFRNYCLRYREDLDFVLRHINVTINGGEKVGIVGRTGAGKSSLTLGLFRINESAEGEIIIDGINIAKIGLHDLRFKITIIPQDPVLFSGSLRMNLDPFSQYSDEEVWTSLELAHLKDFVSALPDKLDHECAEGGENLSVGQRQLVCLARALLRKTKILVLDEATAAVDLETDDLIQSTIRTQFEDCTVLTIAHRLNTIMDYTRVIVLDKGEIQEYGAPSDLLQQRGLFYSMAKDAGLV

[3] = biological target: T1, Multidrug resistance-associated protein 1; assay: TP_TRANSPORTER: drug resistance in Mrp1-expressing HEK293 cells; conditions: human
[4] = biological target: T2, Multidrug resistance-associated protein 1; assay: TP_TRANSPORTER: drug resistance in MRP1-expressing HEK293 cells

| Activity [1] | Activity [2] | Activity [3] | Activity [4] | Compound |
| --- | --- | --- | --- | --- |
| substrate [+] | substrate [+] |  |  | COc1cc([C@@H]2c3cc4c(cc3[C@@H](O[C@@H]3O[C@@H]5CO[C@@H](C)O[C@H]5[C@H](O)[C@H]3O)[C@H]3COC(=O)[C@H]23)OCO4)cc(OC)c1O [ETOPOSIDE] |
|  |  | is not a substrate [-] | substrate [+] | COc1cccc2c1C(=O)c1c(O)c3c(c(O)c1C2=O)C[C@@](O)(C(=O)CO)C[C@@H]3O[C@H]1C[C@H](N)[C@H](O)[C@H](C)O1 [DOXORUBICIN] |

The next lines start with the compound.

| Compound | Activity [1] | Activity [2] | Activity [3] | Activity [4] |
| --- | --- | --- | --- | --- |
| COc1cc2c(c(OC)c1OC)-c1ccc(OC)c(=O)cc1[C@@H](NC(C)=O)CC2 [COLCHICINE] |  |  | substrate [+]; also recorded: is not a substrate [-] |  |
| COc1cccc2c1C(=O)c1c(O)c3c(c(O)c1C2=O)C[C@@](O)(C(=O)CO)C[C@@H]3O[C@H]1C[C@H](N)[C@@H](O)[C@H](C)O1 [EPIRUBICIN] |  |  | is not a substrate [-] | substrate [+] |
| CC[C@]1(O)C[C@H]2CN(CCc3c([nH]c4ccccc34)[C@@](C(=O)OC)(c3cc4c(cc3OC)N(C=O)[C@H]3[C@@](O)(C(=O)OC)[C@H](OC(C)=O)[C@]5(CC)C=CCN6CC[C@]43[C@@H]65)C2)C1 [VINCRISTINE] | substrate [+] |  |  |  |
